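Assay format: 96-well plates, 48-hour exposure. At the GI50, growth is halved. TGI is the concentration that stops growth completely.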
Experiments:
Test in all cases: growth of human tumour cells (NCI), 48 h
A498 renal = system: A498 renal
A549 NSCLC = system: A549 NSCLC
ACHN renal = system: ACHN renal
CAKI-1 renal = system: CAKI-1 renal
CCRF-CEM leukemia = system: CCRF-CEM leukemia
COLO 205 colon = system: COLO 205 colon
DU-145 prostate = system: DU-145 prostate
EKVX NSCLC = system: EKVX NSCLC
HCC-2998 colon = system: HCC-2998 colon
HCT-116 colon = system: HCT-116 colon
HCT-15 colon = system: HCT-15 colon
HL-60(TB) leukemia = system: HL-60(TB) leukemia
HOP-62 NSCLC = system: HOP-62 NSCLC
HOP-92 NSCLC = system: HOP-92 NSCLC
HS 578T breast = system: HS 578T breast
HT29 colon = system: HT29 colon
IGROV1 ovarian = system: IGROV1 ovarian
K-562 leukemia = system: K-562 leukemia
KM12 colon = system: KM12 colon
LOX IMVI melanoma = system: LOX IMVI melanoma
M14 melanoma = system: M14 melanoma
MALME-3M melanoma = system: MALME-3M melanoma
MCF7 breast = system: MCF7 breast
MDA-MB-231 breast = system: MDA-MB-231 breast
MDA-MB-435 = system: MDA-MB-435
NCI-H226 lung = system: NCI-H226 lung
NCI-H23 lung = system: NCI-H23 lung

`S=C(Nc1ccc(Cl)cc1)Nc1ccc(Cl)cc1` (tested in a mixture with another compound) gave a GI50 (A498 renal) of 1620 nM, a TGI (A498 renal) of 6560 nM and a GI50 (A549 NSCLC) of 2380 nM. The TGI (A549 NSCLC) was > 100000 nM, the GI50 (ACHN renal) was 2370 nM and the TGI (ACHN renal) was 9120 nM. It also gave a GI50 (CAKI-1 renal) of 2150 nM, a TGI (CAKI-1 renal) of 7080 nM and a GI50 (CCRF-CEM leukemia) of 1610 nM. For the same compound, the TGI (CCRF-CEM leukemia) was 9830 nM, the GI50 (COLO 205 colon) was 1900 nM and the TGI (COLO 205 colon) was 3420 nM. For the same compound, the GI50 (DU-145 prostate) was 4870 nM, the TGI (DU-145 prostate) was > 100000 nM and the GI50 (EKVX NSCLC) was 2250 nM. For the same compound, the TGI (EKVX NSCLC) was > 100000 nM, the GI50 (HCC-2998 colon) was 2070 nM and the TGI (HCC-2998 colon) was 5500 nM. For the same compound, the GI50 (HCT-116 colon) was 1460 nM, the TGI (HCT-116 colon) was 3070 nM and the GI50 (HCT-15 colon) was 2590 nM. It also gave a TGI (HCT-15 colon) of 11400 nM, a GI50 (HL-60(TB) leukemia) of 1980 nM and a TGI (HL-60(TB) leukemia) of 4980 nM. It also gave a GI50 (HOP-62 NSCLC) of 2750 nM, a TGI (HOP-62 NSCLC) of 7200 nM and a GI50 (HOP-92 NSCLC) of 1550 nM. For the same compound, the TGI (HOP-92 NSCLC) was 4560 nM, the GI50 (HS 578T breast) was 2370 nM and the TGI (HS 578T breast) was > 100000 nM. It also gave a GI50 (HT29 colon) of 1960 nM, a TGI (HT29 colon) of 4880 nM and a GI50 (IGROV1 ovarian) of 3260 nM. For the same compound, the TGI (IGROV1 ovarian) was > 100000 nM, the GI50 (K-562 leukemia) was 2280 nM and the TGI (K-562 leukemia) was > 100000 nM. It also gave a GI50 (KM12 colon) of 2760 nM, a TGI (KM12 colon) of 9100 nM and a GI50 (LOX IMVI melanoma) of 1710 nM. It also gave a TGI (LOX IMVI melanoma) of 3570 nM, a GI50 (M14 melanoma) of 2030 nM and a TGI (M14 melanoma) of 5390 nM. For the same compound, the GI50 (MALME-3M melanoma) was 2550 nM, the TGI (MALME-3M melanoma) was > 100000 nM and the GI50 (MCF7 breast) was 2890 nM. For the same compound, the TGI (MCF7 breast) was 8090 nM, the GI50 (MDA-MB-231 breast) was 1860 nM and the TGI (MDA-MB-231 breast) was 3680 nM. The GI50 (MDA-MB-435) was 2450 nM, the TGI (MDA-MB-435) was 7860 nM and the GI50 (NCI-H226 lung) was 2330 nM. It also gave a TGI (NCI-H226 lung) of 7760 nM and a GI50 (NCI-H23 lung) of 1870 nM.
